# How the values were obtained:
# Type in all cases: physicochemical
# [1] = Solubility experiments: BPA dissolved in acetone or phenol in oil bath at set temperature; conditions: weight ratio BPA to solvent 7.5/2.5
# Experimental: 0.6 gram of bisphenolacetone (BPA) powder was placed in a 10 ml graduated tube with a thread seal. Prior to the experiment, BPA flakes were crushed to said powder to ensure uniform packing density at the bottom of the tube. Then 0.2 gram of a solvent was added to the BPA. The solvent was either acetone (present invention) or phenol (comparative). Thus, the weight ratio of BPA to solvent was 7.5/2.5. The tube was then immersed in an oil bath at a certain temperature, and mixed up to full equilibrium. The foregoing was repeated except that the temperature of the oil bath was set at different values. Table 1 mentions the amounts of BPA dissolved in either acetone or phenol at temperatures ranging from 30 to 110° C. The amount of BPA dissolved was calculated from the loss of BPA from the solids layer at the bottom of the tube.
# [2] = Stability experiments: 4-isopropenyl phenol (IPP) formation in BPA solutions by GC-MS; conditions: for IPP signal intensity where solvent is acetone / IPP signal intensity where solvent is phenol: BPA:solvent 6:4 by weight, GC-MS m/z=134 relative to untreated standard BPA sample
# Experimental: BPA and a solvent were mixed to produce solutions (containing no solids) having a weight ratio of BPA to solvent of 6:4. The solvent was either acetone (present invention) or phenol (comparative). Where the solvent was acetone the solution was obtained at a temperature of 35° C. and then kept at that temperature. However, in view of the above solubility experiments, where the solvent was phenol the solution could only be obtained at a temperature of 120° C. and was then kept at that temperature. The solutions were heated for a certain time period (3, 7 or 14 days) at either 35° C. (acetone) or 120° C. (phenol). At the end of each time period, the amount of 4-isopropenyl phenol (IPP) was determined by means of GC-MS. Table 2 mentions the intensity of the GC-MS signal at m/z=134, which signal is characteristic for IPP, relative to a standard BPA sample that had not been subjected to said temperature treatment.
# [3] = Extended storage of acetone/bisphenolacetone liquid mixture at storage temperature range; conditions: liquid mixture with acetone
smiles,measurement,setting,value
"CC(C)(c1ccc(O)cc1)c1ccc(O)cc1 [BPA, 2,2-bis(4-hydroxyphenyl)propane]",Vol. % of BPA dissolved in acetone,[1]; 30 °C,61 Vol. %
same,Vol. % of BPA dissolved in acetone,[1]; 60 °C,72 Vol. %
same,Vol. % of BPA dissolved in phenol,[1]; 60 °C,0 Vol. %
same,Vol. % of BPA dissolved in acetone,[1]; 75 °C,72 Vol. %
same,Vol. % of BPA dissolved in phenol,[1]; 75 °C,0 Vol. %
same,Vol. % of BPA dissolved in acetone,[1]; 90 °C,74 Vol. %
same,Vol. % of BPA dissolved in phenol,[1]; 90 °C,0 Vol. %
same,Vol. % of BPA dissolved in acetone,[1]; 110 °C,74 Vol. %
same,Vol. % of BPA dissolved in phenol,[1]; 110 °C,61 Vol. %
same,IPP signal intensity where solvent is acetone,[2]; 3 days at 35 °C,0.1
same,IPP signal intensity where solvent is phenol,[2]; 3 days at 120 °C,14.8
same,IPP signal intensity where solvent is acetone,[2]; 7 days at 35 °C,0.0
same,IPP signal intensity where solvent is phenol,[2]; 7 days at 120 °C,22.3
same,IPP signal intensity where solvent is acetone,[2]; 14 days at 35 °C,0.0
same,IPP signal intensity where solvent is phenol,[2]; 14 days at 120 °C,35.0
same,thermal degradation of BPA,"[2]; solution in acetone, storage at 35 °C",does not result in any substantial thermal degradation
same,thermal degradation of BPA into IPP,"[2]; solvent phenol, solution kept at 120 °C",thermally degraded into IPP
same,bisphenolacetone and solution properties upon extended storage,[3],remain unchanged

# — patent publication US20090023884A1, “METHOD FOR STORAGE AND/OR TRANSPORT OF BISPHENOLACETONE AND METHOD FOR PRODUCING AROMATIC POLYCARBONATE” (priority 2007, published 2009)
